# Laboratory results: PubChem BioAssay AID248 (DTP/NCI, 2004)
# Several values for one entry are separate records, joined by “and”; a condition that tells them apart may be missing. Equal entries are not always repeated. Toxic doses and inconclusive results are not listed.
# System: L1210 leukemia ip in BDF1 mice, survival T/C
# Assay: NCI In Vivo Anticancer Drug Screen. Data for tumor model L1210 Leukemia (intraperitoneal) in B6D2F1 (BDF1) mice
# Settings: higher = longer survival
# Procedure, shortened: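 Transplanted-tumor mice were given test agent; controls received vehicle only. Survival readings from the two groups were divided (treated over control).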
# [1] = endpoint: mean survival time, dose: 100.0 mg/kg/injection, schedule: Q01DX009 (ip), vehicle: saline with Tween-80
# [2] = endpoint: mean survival time, dose: 100.0 mg/kg/injection, schedule: Q01DX009 (ip), vehicle: Klucel (hydroxypropylcellulose) (HPC)
# [3] = endpoint: mean survival time, dose: 200.0 mg/kg/injection, schedule: Q01DX009 (ip), vehicle: Klucel (hydroxypropylcellulose) (HPC)
# [4] = endpoint: mean survival time, dose: 400.0 mg/kg/injection, schedule: Q01DX009 (ip), vehicle: Klucel (hydroxypropylcellulose) (HPC)
smiles,measurement,setting,value
COc1cc2cc3c4cc(OC)c(OC)cc4cc[n+]3c(C)c2cc1OC,T/C,"endpoint: mean survival time, dose: 12.0 mg/kg/injection, schedule: Q01DX009 (ip), vehicle: saline",100 % of control
same,T/C,"endpoint: mean survival time, dose: 12.5 mg/kg/injection, schedule: Q01DX009 (ip), vehicle: water",117 % of control
same,T/C,"endpoint: mean survival time, dose: 16.0 mg/kg/injection, schedule: Q03HX008 (ip), vehicle: saline",122 % of control
same,T/C,"endpoint: mean survival time, dose: 16.0 mg/kg/injection, schedule: Q03HX016 (ip), vehicle: saline",122 % of control
same,T/C,"endpoint: mean survival time, dose: 25.0 mg/kg/injection, schedule: Q01DX009 (ip), vehicle: saline",117 % of control
same,T/C,"endpoint: mean survival time, dose: 32.0 mg/kg/injection, schedule: Q03HX008 (ip), vehicle: saline",118 % of control
same,T/C,"endpoint: mean survival time, dose: 32.0 mg/kg/injection, schedule: Q03HX024 (ip), vehicle: saline",124 % of control
same,T/C,"endpoint: mean survival time, dose: 50.0 mg/kg/injection, schedule: Q01DX009 (ip), vehicle: saline sonified",115 % of control
same,T/C,"endpoint: mean survival time, dose: 50.0 mg/kg/injection, schedule: Q04DX002 (ip), vehicle: saline",120 % of control
same,T/C,"endpoint: mean survival time, dose: 50.0 mg/kg/injection, schedule: Q04DX003 (ip), vehicle: saline",116 % of control
same,T/C,"endpoint: mean survival time, dose: 64.0 mg/kg/injection, schedule: Q03HX008 (ip), vehicle: saline",122 % of control
same,T/C,"endpoint: mean survival time, dose: 100.0 mg/kg/injection, schedule: Q01DX009 (ip), vehicle: saline sonified",115 % of control
same,T/C,"endpoint: mean survival time, dose: 100.0 mg/kg/injection, schedule: Q01DX009 (ip), vehicle: saline",110 % of control and 119 % of control
same,T/C,"endpoint: mean survival time, dose: 100.0 mg/kg/injection, schedule: Q04DX002 (ip), vehicle: saline",123 % of control
same,T/C,"endpoint: mean survival time, dose: 100.0 mg/kg/injection, schedule: Q04DX003 (ip), vehicle: saline",108 % of control
same,T/C,"endpoint: mean survival time, dose: 128.0 mg/kg/injection, schedule: Q01DX001 (ip), vehicle: saline",117 % of control
same,T/C,"endpoint: mean survival time, dose: 128.0 mg/kg/injection, schedule: Q01DX009 (ip), vehicle: saline",120 % of control
same,T/C,"endpoint: mean survival time, dose: 128.0 mg/kg/injection, schedule: Q03HX008 (ip), vehicle: saline",124 % of control
same,T/C,"endpoint: mean survival time, dose: 128.0 mg/kg/injection, schedule: Q04DX003 (ip), vehicle: saline",114 % of control
same,T/C,"endpoint: mean survival time, dose: 128.0 mg/kg/injection, schedule: Q08DX002 (ip), vehicle: saline",122 % of control
same,T/C,"endpoint: mean survival time, dose: 200.0 mg/kg/injection, schedule: Q01DX009 (ip), vehicle: saline sonified",112 % of control
same,T/C,"endpoint: mean survival time, dose: 200.0 mg/kg/injection, schedule: Q04DX002 (ip), vehicle: saline",120 % of control
same,T/C,"endpoint: mean survival time, dose: 256.0 mg/kg/injection, schedule: Q01DX001 (ip), vehicle: saline",117 % of control
same,T/C,"endpoint: mean survival time, dose: 256.0 mg/kg/injection, schedule: Q08DX002 (ip), vehicle: saline",118 % of control
same,T/C,"endpoint: mean survival time, dose: 400.0 mg/kg/injection, schedule: Q01DX009 (ip), vehicle: water",151 % of control
same,T/C,"endpoint: mean survival time, dose: 400.0 mg/kg/injection, schedule: Q04DX002 (ip), vehicle: saline",116 % of control and 118 % of control
same,T/C,"endpoint: mean survival time, dose: 400.0 mg/kg/injection, schedule: Q04DX003 (ip), vehicle: saline",120 % of control
same,T/C,"endpoint: mean survival time, dose: 512.0 mg/kg/injection, schedule: Q01DX001 (ip), vehicle: saline",119 % of control
same,T/C,"endpoint: mean survival time, dose: 512.0 mg/kg/injection, schedule: Q08DX002 (ip), vehicle: saline",120 % of control
same,T/C,"endpoint: mean survival time, dose: 1024.0 mg/kg/injection, schedule: Q04DX003 (ip), vehicle: saline",106 % of control
same,T/C,"endpoint: median survival time, dose: 16.0 mg/kg/injection, schedule: Q03HX008 (ip), vehicle: saline",122 % of control
same,T/C,"endpoint: median survival time, dose: 16.0 mg/kg/injection, schedule: Q03HX024 (ip), vehicle: saline",122 % of control
same,T/C,"endpoint: median survival time, dose: 32.0 mg/kg/injection, schedule: Q01DX009 (ip), vehicle: saline",122 % of control
same,T/C,"endpoint: median survival time, dose: 50.0 mg/kg/injection, schedule: Q01DX009 (ip), vehicle: saline",105 % of control and 109 % of control
same,T/C,"endpoint: median survival time, dose: 62.5 mg/kg/injection, schedule: Q01DX009 (ip), vehicle: saline",120 % of control
same,T/C,"endpoint: median survival time, dose: 64.0 mg/kg/injection, schedule: Q01DX001 (ip), vehicle: saline",122 % of control
same,T/C,"endpoint: median survival time, dose: 64.0 mg/kg/injection, schedule: Q01DX009 (ip), vehicle: saline",122 % of control
same,T/C,"endpoint: median survival time, dose: 64.0 mg/kg/injection, schedule: Q01DX009 (oral), vehicle: saline",100 % of control
same,T/C,"endpoint: median survival time, dose: 64.0 mg/kg/injection, schedule: Q01DX009 (sc), vehicle: saline",100 % of control
same,T/C,"endpoint: median survival time, dose: 64.0 mg/kg/injection, schedule: Q03HX008 (ip), vehicle: saline",122 % of control
same,T/C,"endpoint: median survival time, dose: 64.0 mg/kg/injection, schedule: Q04DX003 (ip), vehicle: saline",122 % of control
same,T/C,"endpoint: median survival time, dose: 64.0 mg/kg/injection, schedule: Q08DX002 (ip), vehicle: saline",111 % of control
same,T/C,"endpoint: median survival time, dose: 125.0 mg/kg/injection, schedule: Q01DX009 (ip), vehicle: saline",120 % of control
same,T/C,"endpoint: median survival time, dose: 128.0 mg/kg/injection, schedule: Q01DX001 (ip), vehicle: saline",122 % of control
same,T/C,"endpoint: median survival time, dose: 128.0 mg/kg/injection, schedule: Q01DX009 (ip), vehicle: saline",122 % of control
same,T/C,"endpoint: median survival time, dose: 128.0 mg/kg/injection, schedule: Q01DX009 (oral), vehicle: saline",105 % of control
same,T/C,"endpoint: median survival time, dose: 128.0 mg/kg/injection, schedule: Q01DX009 (sc), vehicle: saline",100 % of control
same,T/C,"endpoint: median survival time, dose: 128.0 mg/kg/injection, schedule: Q04DX003 (ip), vehicle: saline",122 % of control
same,T/C,"endpoint: median survival time, dose: 128.0 mg/kg/injection, schedule: Q08DX002 (ip), vehicle: saline",122 % of control
same,T/C,"endpoint: median survival time, dose: 256.0 mg/kg/injection, schedule: Q01DX009 (oral), vehicle: saline",111 % of control
same,T/C,"endpoint: median survival time, dose: 256.0 mg/kg/injection, schedule: Q01DX009 (sc), vehicle: saline",94 % of control
same,T/C,"endpoint: median survival time, dose: 256.0 mg/kg/injection, schedule: Q08DX002 (ip), vehicle: saline",122 % of control
same,T/C,"endpoint: median survival time, dose: 512.0 mg/kg/injection, schedule: Q01DX001 (ip), vehicle: saline",122 % of control
same,T/C,"endpoint: median survival time, dose: 512.0 mg/kg/injection, schedule: Q01DX009 (oral), vehicle: saline",100 % of control
same,T/C,"endpoint: median survival time, dose: 512.0 mg/kg/injection, schedule: Q01DX009 (sc), vehicle: saline",100 % of control
same,T/C,"endpoint: median survival time, dose: 512.0 mg/kg/injection, schedule: Q04DX003 (ip), vehicle: saline",122 % of control
same,T/C,"endpoint: median survival time, dose: 1024.0 mg/kg/injection, schedule: Q01DX009 (oral), vehicle: saline",88 % of control
same,T/C,"endpoint: median survival time, dose: 1024.0 mg/kg/injection, schedule: Q01DX009 (sc), vehicle: saline",100 % of control
same,T/C,"endpoint: median survival time, dose: 1024.0 mg/kg/injection, schedule: Q08DX002 (ip), vehicle: saline",122 % of control
same,T/C,"endpoint: median survival time, dose: 1600.0 mg/kg/injection, schedule: Q01DX009 (ip), vehicle: saline",90 % of control
CC(C)(Br)C(=O)c1ccco1,T/C,[1],95 % of control
O=[N+]([O-])c1cc2c(c([N+](=O)[O-])c1)Nc1cc(Cl)ccc1O2,T/C,[2],95 % of control
same,T/C,[3],96 % of control
same,T/C,[4],96 % of control
Cc1cc(OCCOC(=O)Nc2ccccc2C(F)(F)F)cc(C)c1Cl,T/C,"endpoint: mean survival time, dose: 100.0 mg/kg/injection, schedule: Q04DX002 (ip), vehicle: Klucel (hydroxypropylcellulose) (HPC)",89 % of control
same,T/C,"endpoint: mean survival time, dose: 200.0 mg/kg/injection, schedule: Q04DX002 (ip), vehicle: Klucel (hydroxypropylcellulose) (HPC)",101 % of control
same,T/C,"endpoint: mean survival time, dose: 400.0 mg/kg/injection, schedule: Q04DX002 (ip), vehicle: Klucel (hydroxypropylcellulose) (HPC)",92 % of control
Cc1nc(-c2ccccc2)nc2c1CCO2,T/C,[1],100 % of control
same,T/C,"endpoint: mean survival time, dose: 200.0 mg/kg/injection, schedule: Q01DX009 (ip), vehicle: saline with Tween-80",107 % of control
C(=NCCc1ccccc1)c1ccccc1B1OB(c2ccccc2C=NCCc2ccccc2)OB(c2ccccc2C=NCCc2ccccc2)O1,T/C,[2],97 % of control
same,T/C,"endpoint: mean survival time, dose: 100.0 mg/kg/injection, schedule: Q04DX003 (ip), vehicle: Klucel (hydroxypropylcellulose) (HPC)",91 % of control
same,T/C,[3],97 % of control
same,T/C,"endpoint: mean survival time, dose: 200.0 mg/kg/injection, schedule: Q04DX003 (ip), vehicle: Klucel (hydroxypropylcellulose) (HPC)",89 % of control
same,T/C,[4],102 % of control
same,T/C,"endpoint: mean survival time, dose: 400.0 mg/kg/injection, schedule: Q04DX003 (ip), vehicle: Klucel (hydroxypropylcellulose) (HPC)",94 % of control
CCC(C)NC(=O)/C=C/C(=O)NC(C)CC (stereo not drawn),T/C,"endpoint: mean survival time, dose: 100.0 mg/kg/injection, schedule: Q04DX003 (ip), vehicle: saline with Tween-80",91 % of control
same,T/C,"endpoint: mean survival time, dose: 200.0 mg/kg/injection, schedule: Q04DX003 (ip), vehicle: saline with Tween-80",100 % of control
same,T/C,"endpoint: mean survival time, dose: 400.0 mg/kg/injection, schedule: Q04DX003 (ip), vehicle: saline with Tween-80",100 % of control
